Measured values published in patent publication US6136327A, “Stereospecific delivery of a drug using electrotransport” (priority 1997, dated 2000).

Columns and labels:
[1] = transdermal; cited from earlier work
[2] = clinical; conditions: in vivo; for AUC(0-inf): AUCinf
Protocol: A study was performed in order to compare the pharmacokinetic parameters of R- and S-ketorolac following intravenous, passive transdermal and electrotransport administration of a racemic mixture of ketorolac.
Twelve healthy male volunteers were enrolled in a pilot feasibility study. Subjects were required to undergo a pre-study screening to evaluate whether they met study inclusion or exclusion criteria. Screening procedures included a medical history, physical exam, electrocardiogram and clinical laboratory tests.
The study was an open-label, randomized, three-treatment crossover pharmacokinetics study designed to compare plasma ketorolac concentrations during 24-hour treatment regimens with an electrotransport system ("ETS"), a (passive) therapeutic transdermal system ("TTS") and intravenous ketorolac bolus injection.
The ketorolac treatments are listed below; there was a washout period of at least 6 days between treatments.
During the ETS (ketorolac) treatment, each subject was expected to receive an estimated 26 mg of ketorolac free acid over a 24-hour period, delivered by electrotransport from a total cathode area of 18 cm^2, based on an estimated in vitro flux rate of 60 μg/cm^2 /h.
Three electrotransport systems, with a total cathode gel area of 18 cm^2, were applied to the upper arms of each subject in this study. Each of the three controllers was set to provide a total direct current of 0.6 mA, which maintained a current density of 100 μA/cm^2.
During TTS treatment, each subject was expected to receive an estimated 50 mg of ketorolac free acid over a 24-hour period, delivered passively through the skin from a total application area of 75 cm^2 based on an estimated in vitro flux rate of 25 to 30 μg/cm^2 /h.
The TTS systems were produced with a backing and protective liner in a 25 cm^2 size. The system formulation contained drug (free acid), ethylene vinyl acetate (40% vinyl acetate), glycerol monolaurate, and Ceraphyl® 31. Three TTS monoliths, with a total surface area of 75 cm^2, were used to deliver the drug. The combined systems contained 135 mg of ketorolac free acid. Because the systems were not self-adhesive, an adhesive overlay was required to ensure good skin contact.
During the intravenous bolus treatment, each subject received a total of 24 mg of ketorolac free acid (36 mg of ketorolac tromethamine salt). Drug was delivered by IV bolus injections of 12 mg of ketorolac free acid (18 mg of ketorolac tromethamine salt) which were administered at Hour 0 and at Hour 12. A 1 mL aliquot of each ketorolac solution was retained directly after syringe preparation and prior to injection.
Initially either the ETS or the TTS was applied, or the first intravenous injection was administered. ETS and TTS treatments continued for 24 hours, and the bolus treatment was completed after the second dose at 12 hours. Blood and urine samples were collected at intervals during a 48-hour period after initiation of each ketorolac treatment regimen.
Blood samples, 7 mL each, were collected from each subject at intervals during the 48 hour period after initiation of treatment.
Plasma levels of ketorolac were determined by HPLC assay, performed at the Clinical Pharmacology Division of the School of Medicine at Indiana University, Wishard Memorial Hospital, Indianapolis, Ind.
Actual blood sample collection times were used for all calculations and data were summarized by nominal sampling times. Plasma ketorolac concentrations below the assay quantification limit of 20 ng/mL were assigned a value of zero.

[3] = in vivo
Protocol: The transport of the R- and S-isomers of ketorolac was evaluated using passive transdermal delivery and electrotransport, in a study conducted in healthy volunteers. Intravenous bolus administration of 24 mg racemic ketorolac served as the reference treatment. The relative amounts of R- and S-ketorolac absorbed following passive transdermal and electrotransport administration were determined relative to intravenous R- and S-ketorolac clearance (assuming that the racemic ketorolac contained equal amounts of the R- and S-isomers).

[4] = in vivo; cited from earlier work

Which “flux rates of individual purified isomers” value [1] does the source give for phenylpropanolamine here?
Its value is “nearly identical flux rates”.

What does the source list for O=C(c1ccccc1)c1ccc2n1CC[C@H]2C(=O)O [R-ketorolac]?
Plasma Ketorolac Concentrations ([2]; human, 60 min): 0.0 ng/mL; Plasma Ketorolac Concentrations ([2]; human, 90 min): 0.0 ng/mL; Plasma Ketorolac Concentrations ([2]; human, 240 min): 0.0 ng/mL; Plasma Ketorolac Concentrations ([2]; human, 360 min): 0.0 ng/mL; Plasma Ketorolac Concentrations ([2]; human, 480 min): 0.0 ng/mL; Plasma Ketorolac Concentrations ([2]; human, 720 min): 0.0 ng/mL; Plasma Ketorolac Concentrations ([2]; human, 960 min): 0.0 ng/mL; Plasma Ketorolac Concentrations ([2]; human, 1680 min): 0.0 ng/mL; Plasma Ketorolac Concentrations ([2]; human, 1920 min): 0.0 ng/mL; Plasma Ketorolac Concentrations ([2]; human, 2880 min): 0.0 ng/mL; AUC(0-inf) ([2]; human): 5640 ng·h/mL; AUC inf ([2]; human, iv): 6171 ng·h/mL; Apparent elimination rate constant (k) ([2]; human, iv): 0.125 h⁻¹; Apparent half-life (t1/2) ([2]; human, iv): 4.3 h; C max ([2]; human, iv): 872 ng/mL; K2 (elimination rate constant) ([2]; human, iv): 0.15 h⁻¹; Volume ([2]; human, iv): 5.4 L; Plasma Ketorolac Concentrations ([2]; human, iv, 720 min): 0.0 ng/mL; Plasma Ketorolac Concentrations ([2]; human, iv, 14 h): 386.0 ng/mL; AUC(0-inf) ([2]; human, iv): 6250 ng·h/mL; k el ([2]; human, iv, Apparent elimination rate constant (k)): 3.89e-05 s⁻¹; half-life ([2]; human, iv, Apparent half-life (t1/2)): 5 h; Plasma Ketorolac Concentrations ([2]; human, topical or ocular, 1.5 h): 37.0 ng/mL; Plasma Ketorolac Concentrations ([2]; human, topical or ocular, 12 h): 67.0 ng/mL; Plasma Ketorolac Concentrations ([2]; human, topical or ocular, 20 h): 29.0 ng/mL; Plasma Ketorolac Concentrations ([2]; human, topical or ocular, 24.5 h): 211.0 ng/mL; plasma concentrations during TTS compared with ETS [2]: lower than those observed during ETS administration; Amount Delivered (AD), ETS/IV (amount absorbed) ([2]; iv): 7.9 mg; Amount Delivered (AD), TTS/IV (amount absorbed) ([2]; iv): 4.96 mg; K1 (distribution rate constant) ([2]; iv): 1.54 h⁻¹; T max ([2]; iv): 0.5 h; clearance, R- vs S-ketorolac ([2]; iv): differed

For O=C(c1ccccc1)c1ccc2n1CC[C@@H]2C(=O)O [S-ketorolac], which “Plasma Ketorolac Concentrations” value ([2]; human, 60 min) is on record?
The value was 0.0 ng/mL.

And the “Plasma Ketorolac Concentrations” value ([2]; human, 90 min)?
The value was 0.0 ng/mL.

What about the “Plasma Ketorolac Concentrations” value ([2]; human, 360 min) of the same molecule?
Its value is 0.0 ng/mL.

What about the “Plasma Ketorolac Concentrations” value ([2]; human, 480 min) of the same molecule?
The value was 0.0 ng/mL.

And the “Plasma Ketorolac Concentrations” value ([2]; human, 720 min)?
The value was 0.0 ng/mL.

And the “Plasma Ketorolac Concentrations” value ([2]; human, 960 min)?
Its value is 0.0 ng/mL.

And the “Plasma Ketorolac Concentrations” value ([2]; human, 1200 min)?
The value was 0.0 ng/mL.

What about the “Plasma Ketorolac Concentrations” value ([2]; human, 1440 min) of the same molecule?
The value was 0.0 ng/mL.

What about the “Plasma Ketorolac Concentrations” value ([2]; human, 1470 min) of the same molecule?
Its value is 0.0 ng/mL.

What about the “Plasma Ketorolac Concentrations” value ([2]; human, 1500 min) of the same molecule?
Its value is 0.0 ng/mL.

And the “Plasma Ketorolac Concentrations” value ([2]; human, 1560 min)?
Its value is 0.0 ng/mL.

And the “Plasma Ketorolac Concentrations” value ([2]; human, 1680 min)?
Its value is 0.0 ng/mL.

And the AUC inf ([2]; human, iv)?
Its AUC inf is 1566 ng·h/mL.

And the “Apparent elimination rate constant (k)” value ([2]; human, iv)?
Its value is 0.41 h⁻¹.

What about the C max ([2]; human, iv) of the same molecule?
Its C max is 404 ng/mL.

What about the “K2 (elimination rate constant)” value ([2]; human, iv) of the same molecule?
Its value is 0.35 h⁻¹.

What about the T max ([2]; human, iv) of the same molecule?
The T max was 0.5 h.

What about the Volume ([2]; human, iv) of the same molecule?
Its Volume is 10.33 L.

And the “Plasma Ketorolac Concentrations” value ([2]; human, iv, 240 min)?
Its value is 0.0 ng/mL.

And the “Plasma Ketorolac Concentrations” value ([2]; human, iv, 360 min)?
Its value is 0.0 ng/mL.

What about the “Plasma Ketorolac Concentrations” value ([2]; human, iv, 480 min) of the same molecule?
The value was 0.0 ng/mL.

And the “Plasma Ketorolac Concentrations” value ([2]; human, iv, 720 min)?
Its value is 0.0 ng/mL.

And the “Plasma Ketorolac Concentrations” value ([2]; human, iv, 14 h)?
The value was 113.0 ng/mL.

What about the “Plasma Ketorolac Concentrations” value ([2]; human, iv, 1080 min) of the same molecule?
Its value is 0.0 ng/mL.

And the “Plasma Ketorolac Concentrations” value ([2]; human, iv, 1200 min)?
The value was 0.0 ng/mL.

And the “Plasma Ketorolac Concentrations” value ([2]; human, iv, 1440 min)?
Its value is 0.0 ng/mL.

What about the AUC(0-inf) ([2]; human, iv) of the same molecule?
The AUC(0-inf) was 1560 ng·h/mL.

What about the “Plasma Ketorolac Concentrations” value ([2]; human, topical or ocular, 16 h) of the same molecule?
Its value is 58.0 ng/mL.

What about the “Plasma Ketorolac Concentrations” value ([2]; human, topical or ocular, 28 h) of the same molecule?
The value was 21.0 ng/mL.

And the “Amount Delivered (AD), ETS/IV (amount absorbed)” value ([2]; iv)?
Its value is 11.65 mg.

And the “Amount Delivered (AD), TTS/IV (amount absorbed)” value ([2]; iv)?
Its value is 4.76 mg.

What about the “K1 (distribution rate constant)” value ([2]; iv) of the same molecule?
The value was 2.10 h⁻¹.

And the “clearance, R- vs S-ketorolac” value ([2]; iv)?
The value was “differed”.

And the “S/R ratio of amount absorbed, mean” value [3]?
Its value is 1.15.

What about the “S/R ratio of amount absorbed, median” value [3] of the same molecule?
Its value is 1.18.

And the “S/R ratio of amount absorbed, range” value [3]?
Its value is 0.8-1.43.

And the “clearance vs other enantiomer” value [4]?
The value was “more rapid clearance than the other enantiomer”.
